# According to patent US5049570A, “Pyridylphenyl nitrogen heterocycle-substituted carbinols and derivatives thereof with anti-inflammatory activity” (Du Pont Merck Pharmaceutical Company, priority 1990, dated 1991):
# System: inflammation induced by tetradecanoyl phorbol acetate (TPA), ears of mice
# Experiment: TPA model: inhibition of tetradecanoyl phorbol acetate (TPA)-induced ear swelling (edema) in mice
# Format: in vivo
# Parameters: dose or concentration left out as unconfirmed
# Settings: Mus musculus, topical, 4 h, applied to the ears in a vehicle such as acetone, edema measured four hours later, read-out: % inhibition of control swelling
# From the text: One such model is inflammation induced by tetradecanoyl phorbol acetate (TPA), modified from the method of Kuehl et al., Nature, 1977, 265, 170; and Van Arman, Clin. Pharmacol. Ther., 1974, 16, 900. The TPA model mimics many of the inflammatory changes which occur in human diseases such as psoriasis, since elevated levels of inflammatory arachidonic acid metabolites are found and an influx of polymorphonuclear leukocytes is observed.
# The test procedure used to evaluate the compounds of formula (I) is as follows: the test compound […] was applied to the ears of mice in an appropriate vehicle, such as acetone, and then TPA, the inflammatory stimulus was applied to the right ear. Four hours later, the edema was measured by removing standard size discs from the ears using a biopsy punch. The weights of the ears were determined, and the suppression of the swelling observed in animals not treated with the test compound was determined.
row,Compound,inhibition in vivo
1,"OC(Cn1ccnc1)(c1ccc(F)cc1)c1cccc(-c2ccncc2)c1 (centres unmarked) [Example 8, 1-(4-fluorophenyl)-1-[3-(4-pyridyl)phenyl]-2-(1-imidazolyl)ethanol]",69%
2,OC(Cn1ccnc1)(c1ccc(-c2cccnc2)cc1)c1ccc(F)cc1F (centres unmarked) [Example 4],52%
3,"OC(Cn1ccnc1)(c1ccc(F)cc1)c1ccc(-c2ccncc2)cc1 (centres unmarked) [Example 1, 1-(4-fluorophenyl)-1-[4-(4-pyridyl)phenyl]-2-(1-imidazolyl)ethanol]",72%
4,"OC(Cn1ccnc1)(c1ccc(Cl)cc1)c1ccc(-c2ccncc2)cc1 (centres unmarked) [Example 22, 1-(4-chlorophenyl)-1-[4-(4-pyridyl)phenyl]-2-(1-imidazolyl)ethanol]",79%
5,OC(Cn1ccnc1)(c1ccc(F)cc1)c1ccc(-c2ccccn2)cc1 (centres unmarked) [Example 3],63%
6,OC(Cn1ccnc1)(c1ccccc1)c1ccc(-c2ccncc2)cc1 (centres unmarked) [Example 9],46%
7,"OC(Cn1ccnc1)(c1ccc(-c2ccncc2)cc1)c1ccc(C(F)(F)F)cc1 (centres unmarked) [Example 21, 1-(4-trifluoromethylphenyl)-1-[4-(4-pyridyl)phenyl]-2-(1-imidazolyl)ethanol]",66%
8,"COc1ccc(C(O)(Cn2ccnc2)c2ccc(-c3ccncc3)cc2)cc1 (centres unmarked) [Example 12, 1-(4-methoxyphenyl)-1-[4-(4-pyridyl)phenyl]-2-(1-imidazolyl)ethanol]",74%
9,OC(Cn1ccnc1)(c1ccc(-c2ccncc2)cc1)c1ccccc1Cl (centres unmarked) [Example 10],63%
10,"OC(Cn1ccnc1)(c1ccc(-c2ccncc2)cc1)c1ccc(F)cc1F (centres unmarked) [Example 5, 1-(2,4-difluorophenyl)-1-[4-(4-pyridyl)phenyl]-2-(1-imidazolyl)ethanol]",73%
11,OC(Cn1ccnc1)(c1ccc(-c2ccccn2)cc1)c1ccc(F)cc1F (centres unmarked) [Example 2],51%
12,"Cc1ccc(C(O)(Cn2ccnc2)c2ccc(-c3ccncc3)cc2)cc1 (centres unmarked) [Example 11, 1-(4-methylphenyl)-1-[4-(4-pyridyl)phenyl]-2-(1-imidazolyl)ethanol]",62%
13,OC(Cn1ccnc1)(c1ccc(F)cc1)c1cccc(-c2ccccn2)c1 (centres unmarked) [Example 6],61%
14,OC(Cn1ccnc1)(c1ccc(F)cc1)c1cccc(-c2cccnc2)c1 (centres unmarked) [Example 7],64%
